Results from patent US20140107109A1, “AMINO-DIHYDROTHIAZINE AND AMINO-DIOXIDO DIHYDROTHIAZINE COMPOUNDS AS BETA-SECRETASE ANTAGONISTS AND METHODS OF USE” (Amgen Inc., priority 2012, published 2014).
Where two headings read alike, the source gives them in different places.

Legend:
[1] = test system: Aβ40 in conditioned medium of cells stably expressing Amyloid Precursor Protein (APP); assay: In vitro BACE cell-based assay (HEK cell assay), Aβ40 sandwich ELISA; details: Homo sapiens, HEK293
Procedure, shortened: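 APP-stably expressing cells (40K/well, grown 24 h in DMEM/10% FBS) were treated 24 h with compounds in 10-point dose response starting at 100 μM or 10 μM, 0.1% DMSO final. Secreted Aβ40 was measured by sandwich ELISA (pAb40 capture, biotinylated 6E10 detection, europium time-resolved fluorescence); IC50 from percent inhibition.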

[2] = target: Beta Secretase enzyme (BACE1) (Homo sapiens, UniProt P56817); assay: In vitro enzymatic BACE FRET assay; assay type: biochemical; details: read-out: BACE1 FRET assay IC50
Chain of Beta Secretase enzyme (BACE1) (P56817 46-501): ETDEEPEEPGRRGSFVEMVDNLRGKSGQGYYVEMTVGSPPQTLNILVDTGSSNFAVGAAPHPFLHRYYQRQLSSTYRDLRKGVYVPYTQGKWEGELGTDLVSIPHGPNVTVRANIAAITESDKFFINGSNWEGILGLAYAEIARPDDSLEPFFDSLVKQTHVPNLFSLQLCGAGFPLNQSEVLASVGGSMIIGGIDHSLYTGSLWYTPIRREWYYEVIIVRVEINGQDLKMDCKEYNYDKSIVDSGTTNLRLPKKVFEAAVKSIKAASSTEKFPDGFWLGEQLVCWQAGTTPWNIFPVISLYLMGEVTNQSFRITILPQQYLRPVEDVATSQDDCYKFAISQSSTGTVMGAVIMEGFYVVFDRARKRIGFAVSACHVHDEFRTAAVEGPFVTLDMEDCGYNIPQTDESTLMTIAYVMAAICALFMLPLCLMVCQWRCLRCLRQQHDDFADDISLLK
Procedure, shortened: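 BACE1 cleavage of a 50 nM fluorophore/quencher peptide FRET substrate ran for one hour in 0.05 M acetate pH 4.2, 10% DMSO, 100 uM genapol. Tris buffer raised pH to neutrality to stop the reaction before fluorescence was read (excitation 488 nm, […]).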

Cathepsin D (Cat D) = target: T1, Cathepsin D (Cat D) (Homo sapiens, UniProt P07339); assay: In vitro enzymatic Cathepsin D (Cat D) FRET assay; assay type: biochemical; details: read-out: CatD IC50
T1 construct: Recombinant Cat D was expressed in CHO cells; made in house; host or cells: CHO cells
T1 sequence (P07339 65-412, species assumed): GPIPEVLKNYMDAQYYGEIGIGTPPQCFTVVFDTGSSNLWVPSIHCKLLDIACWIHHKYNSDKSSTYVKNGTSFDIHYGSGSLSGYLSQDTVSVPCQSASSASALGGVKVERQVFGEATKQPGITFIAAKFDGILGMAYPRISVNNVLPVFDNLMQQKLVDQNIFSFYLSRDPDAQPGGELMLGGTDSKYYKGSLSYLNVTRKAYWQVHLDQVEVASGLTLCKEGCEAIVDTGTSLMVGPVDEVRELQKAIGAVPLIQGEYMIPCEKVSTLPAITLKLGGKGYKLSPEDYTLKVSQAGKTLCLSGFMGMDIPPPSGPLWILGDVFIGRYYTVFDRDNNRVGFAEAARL
Procedure, shortened: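 Recombinant Cat D expressed in CHO cells, used at 9 nM and pre-incubated one hour with serially diluted inhibitor in DMSO. Peptide substrate carries a fluorophore and quencher flanking the cleavage site; reaction stopped with Tris buffer raising pH to neutrality, then fluorescence read.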

| IC50 ([1]; average IC50, cell assay) [nM] | IC50 ([2]; average IC50, enzyme assay) [nM] | IC50 (Cathepsin D (Cat D)) [nM] | IC50 [1] [nM] | IC50 [2] [nM] | SMILES | other results |
| --- | --- | --- | --- | --- | --- | --- |
| 7790 | 18900 | 187000 |  |  | CC(C)(C)Cc1ccc(Oc2ccc(F)c([C@]3(C)CS(=O)(=O)C(C)(C)C(N)=N3)c2)nc1 [Example 257, (5R)-5-(5-((5-(2,2-dimethylpropyl)-2-pyridinyl)oxy)-2-fluorophenyl)-2,2,5-trimethyl-5,6-dihydro-2H-1,4-thiazin-3-amine 1,1-dioxide] |  |
|  |  | 194000 | 53.9 | 0.86 | C=Cc1cc(Cl)cnc1C(=O)Nc1ccc(F)c([C@]2(CF)CS(=O)(=O)C(C)(C)C(N)=N2)c1 [Example 381, N-(3-((3S)-5-amino-3-(fluoromethyl)-6,6-dimethyl-1,1-dioxido-3,6-dihydro-2H-1,4-thiazin-3-yl)-4-fluorophenyl)-5-chloro-3-ethenyl-2-pyridinecarboxamide] |  |
|  |  | 67500 | 7.4 | 3.11 | Cc1cc(OC(F)F)cnc1C(=O)Nc1ccc(F)c([C@]2(C)CS(=O)(=O)C3(CCC3)C(N)=N2)c1 [Example 121, (R)—N-(3-(9-amino-7-methyl-5,5-dioxido-5-thia-8-azaspiro[3.5]non-8-en-7-yl)-4-fluorophenyl)-5-(difluoromethoxy)-3-methylpicolinamide] |  |
|  |  | 419000 | 39.3 | 3.1 | CC1(C)C(N)=N[C@](C)(c2cc(NC(=O)c3ccc(F)cn3)cnc2F)CS1(=O)=O [Example 399, N-(5-((3R)-5-amino-3,6,6-trimethyl-1,1-dioxido-3,6-dihydro-2H-1,4-thiazin-3-yl)-6-fluoro-3-pyridinyl)-5-fluoro-2-pyridinecarboxamide] |  |
| 624 | 650 | 555000 |  |  | Cc1cccnc1Oc1ccc(F)c([C@]2(C)CS(=O)(=O)C(C)(C)C(N)=N2)c1 [Example 263, (5R)-5-(2-fluoro-5-((3-methyl-2-pyridinyl)oxy)phenyl)-2,2,5-trimethyl-5,6-dihydro-2H-1,4-thiazin-3-amine 1,1-dioxide] |  |
| 26.3 | 1.15 | 38800 |  |  | C[C@@]1(c2cc(Nc3nccc4cc(Cl)cnc34)ccc2F)CS(=O)(=O)C2(CCC2)C(N)=N1 [Example 116, (R)-9-amino-7-(5-((3-chloro-1,7-naphthyridin-8-yl)amino)-2-fluorophenyl)-7-methyl-5-thia-8-azaspiro[3.5]non-8-ene 5,5-dioxide] |  |

The next lines start with the compound.

| SMILES | IC50 ([1]; average IC50, cell assay) [nM] | IC50 ([2]; average IC50, enzyme assay) [nM] | IC50 (Cathepsin D (Cat D)) [nM] | IC50 [1] [nM] | IC50 [2] [nM] | other results |
| --- | --- | --- | --- | --- | --- | --- |
| CC1(C)C(N)=N[C@](C)(c2cc(Nc3ncc(Cl)c4cc(Cl)cnc34)ccc2F)CS1(=O)=O [Example 192, (R)-5-amino-3-(5-((3,5-dichloro-1,7-naphthyridin-8-yl)amino)-2-fluorophenyl)-3,6,6-trimethyl-3,6-dihydro-2H-1,4-thiazine 1,1-dioxide] | 36.6 | 0.7 | 32400 |  |  |  |
| Cc1ccc(Oc2ccc(F)c([C@]3(C)CS(=O)(=O)C(C)(C)C(N)=N3)c2)nc1 [Example 265, (5R)-5-(2-fluoro-5-((5-methyl-2-pyridinyl)oxy)phenyl)-2,2,5-trimethyl-5,6-dihydro-2H-1,4-thiazin-3-amine 1,1-dioxide] | 804 | 2260 | 373000 |  |  |  |
| C[C@@]1(c2cc(Nc3nccc4cc(C#N)cnc34)cnc2F)CS(=O)(=O)C2(CCC2)C(N)=N1 [Example 386, 8-((5-((7R)-9-amino-7-methyl-5,5-dioxido-5-thia-8-azaspiro[3.5]non-8-en-7-yl)-6-fluoro-3-pyridinyl)amino)-1,7-naphthyridine-3-carbonitrile] |  |  | 54700 | 14.1 | 4.09 |  |
| Cc1cc(OC(F)F)cnc1C(=O)Nc1ccc(F)c([C@]2(CF)CS(=O)(=O)C(C)(C)C(N)=N2)c1 [Example 148, (S)—N-(3-(5-amino-3-(fluoromethyl)-6,6-dimethyl-1,1-dioxido-3,6-dihydro-2H-1,4-thiazin-3-yl)-4-fluorophenyl)-5-(difluoromethoxy)-3-methylpicolinamide] |  |  | 213000 | 9.1 | 1.63 |  |
| CC1(C)C(N)=N[C@](C)(c2cc(NC(=O)c3ccc(Cl)cc3F)ccc2F)CS1(=O)=O [Example 213, N-(3-((3R)-5-amino-3,6,6-trimethyl-1,1-dioxido-3,6-dihydro-2H-1,4-thiazin-3-yl)-4-fluorophenyl)-4-chloro-2-fluorobenzamide] | 29 | 12.3 | 442000 |  |  |  |
| Cc1cc(Cl)cnc1C(=O)Nc1cnc(F)c([C@]2(C)CS(=O)(=O)C3(CC3)C(N)=N2)c1 [Example 186, (R)—N-(5-(8-amino-6-methyl-4,4-dioxido-4-thia-7-azaspiro[2.5]oct-7-en-6-yl)-6-fluoropyridin-3-yl)-5-chloro-3-methylpicolinamide] |  |  | 65700 |  |  | IC50 ([1]; average IC50, HEK cells): 4.3 nM; IC50 ([2]; average IC50): 2.4 nM |
| COc1cnc2c(Nc3ccc(F)c([C@@]4(C)N=C(N)C5(CC5)S(=O)(=O)[C@@H]4F)c3)nccc2n1 [Example 209, N-(3-((5S,6R)-8-amino-5-fluoro-6-methyl-4,4-dioxido-4-thia-7-azaspiro[2.5]oct-7-en-6-yl)-4-fluorophenyl)-2-methoxypyrido[3,4-b]pyrazin-5-amine] |  |  | 157000 |  |  | IC50 ([1]; average IC50, HEK cells): 85.4 nM; IC50 ([2]; average IC50): 8.5 nM |
| CC1(C)C(N)=N[C@](C)(c2cc(NC(=O)c3cnc(OCC(F)(F)F)cn3)ccc2F)CS1(=O)=O [Example 346, N-(3-((3R)-5-amino-3,6,6-trimethyl-1,1-dioxido-3,6-dihydro-2H-1,4-thiazin-3-yl)-4-fluorophenyl)-5-(2,2,2-trifluoroethoxy)-2-pyrazinecarboxamide] |  | 0.45 | > 400000 |  |  | IC50 ([1]; average IC50, HEK cell assay): 1.4 nM |
| Cc1cc(OC(F)F)cnc1C(=O)Nc1ccc(F)c([C@@]2(CF)CS(=O)(=O)C3(CCC3)C(N)=N2)c1 [Example 411, N-(3-((7R)-9-amino-7-(fluoromethyl)-5,5-dioxido-5-thia-8-azaspiro[3.5]non-8-en-7-yl)-4-fluorophenyl)-5-(difluoromethoxy)-3-methyl-2-pyridinecarboxamide] |  |  | 514000 | > 15600 | 3510 |  |
| CC1(C)C(N)=N[C@](C)(c2cc(Oc3ccc(C#N)cc3)ccc2F)CS1(=O)=O [Example 96, (R)-4-(3-(5-amino-3,6,6-trimethyl-1,1-dioxido-3,6-dihydro-2H-1,4-thiazin-3-yl)-4-fluorophenoxy)benzonitrile] |  |  | 58700 |  | 1800 | IC50 ([1]; Aβ40, 24 h incubation): 6020 nM |
| CC1(C)C(N)=N[C@](CF)(c2cc(Nc3ncnc4cc(C#N)cnc34)ccc2F)CS1(=O)=O [Example 236, 4-((3-((3S)-5-amino-3-(fluoromethyl)-6,6-dimethyl-1,1-dioxido-3,6-dihydro-2H-1,4-thiazin-3-yl)-4-fluorophenyl)amino)pyrido[3,2-d]pyrimidine-7-carbonitrile] | 40.7 | 0.73 | 56100 |  |  |  |
| COc1cc(Cl)cnc1C(=O)Nc1ccc(F)c([C@]2(CF)CS(=O)(=O)C3(CCC3)C(N)=N2)c1 [Example 375, N-(3-((7S)-9-amino-7-(fluoromethyl)-5,5-dioxido-5-thia-8-azaspiro[3.5]non-8-en-7-yl)-4-fluorophenyl)-5-chloro-3-methoxy-2-pyridinecarboxamide] |  |  | 781000 | 29.8 | 2.9 |  |
